Test results taken from patent US20040180082A1, “Submicron-liposome containing triterpenoid and a method for preparing the same” (AMOREPACIFIC CORPORATION, priority 2002, published 2004).

Test: Wide angle X-ray diffraction of frozen-dried liposome
Format: physicochemical
Details: 2θ value at maximum diffraction no more increasing; FIGS. 2 and 3
Description: The structures and the crystallinities (crystalline property) of the liposome were analyzed with powder XRD equipped with wide-angle diffractometer (Rigaku/USA, D/max-RB) using Cu-Kα (λ=1.54 Å) ray. The oleanolic acid (OA) and liposome prepared in Examples 1, 3, 4, 5 and 6 and frozen-dried were analyzed by X-ray diffraction in wide-angle (θ=2-50°), and the structures of hydrocarbon chains and the molecular distances of oleanolic acid (OA) crystals were determined by the result of the X-ray diffraction. […] Diffractions in a wide range of near 20° were observed because lipids formed smectic (lamellar) liquid-crystal phase, which correspond to the distances between lipid molecules.

content of OA at which OA is saturated in the bi-layer of the liposome: 25.4 mole %
Structure (SMILES): CC1(C)CC[C@]2(C(=O)O)CC[C@]3(C)C(=CC[C@@H]4[C@@]5(C)CC[C@H](O)C(C)(C)[C@@H]5CC[C@]43C)[C@@H]2C1 [OA, oleanolic acid]
